Patent US11471459B2, “Compounds with enhanced anti-tumor effects” (FONDAZIONE PER L'ISTITUTO ONCOLOGICO DI RICERCA (IOR), priority 2018, dated 2022)
pIC50: −log10 of the molar value.

Columns and labels:
PLL cell lines = experiment: Proliferation MTT assay, median per subtype; type: cell-based; conditions: PLL cell lines (n=2), 72 h
REC1 [1] = experiment: Propidium iodide cell cycle staining; type: cell-based, human; conditions: REC1, 500 and 2000 nM, 72 h
Experimental: (§1) Lymphoma cells (10^6 per condition) were fixed in cold 70% ethanol (for at least 30 minutes at 4° C.), added dropwise to the cell pellet while vortexing. Cells were washed ×2 in PBS and Spin at 2000 rpm; supernatant was discarded and cells suspended in PBS (0.5 mL) and treated with Ribonuclease (50 μl of 100 μg/mL RNase). Then 200 μl of propidium iodide (50 μg/ml) were added and data acquisition was performed by using BD FACS-Canto II.

HL cell lines = experiment: Proliferation MTT assay, median per subtype; type: cell-based; conditions: HL cell lines (n=4), 72 h
Experimental: (§2) Thirty-nine cell lines derived from activated B cell-like (ABC) (n=3) and germinal center B Cell (GCB) (n=12) diffuse large B cell lymphoma (DLBCL), mantle cell lymphoma (MCL) (n=9), chronic lymphocytic leukemia (CLL) (n=2), Hodgkin lymphoma (HL) (n=4), cutaneous T cell lymphoma (CTCL) (n=3), peripheral T cell lymphoma (PTCL) (n=1), anaplastic large T cell lymphoma (ALCL) (n=4), acute T cell leukemia (ATCL) (n=1) were cultured according to the recommended conditions. All media were supplemented with fetal bovine serum (10%), Penicillin-Streptomycin-Neomycin (˜5,000 units penicillin, 5 mg streptomycin and 10 mg neomycin/mL, Sigma) and L-glutamine (1%).
(§3) EG-011 was dissolved in dimethyl sulphoxide (DMSO) to obtain a stock concentration of 10 mM for in vitro experiments. EG-011 was dissolved in 25% hydroxypropyl beta cyclodextrin (HP-β-CD) in water and adjusted at pH 6.0 using NaOH (0.1 N) and HCl (0.1 N) for in vivo experiments. Application volume was 4.5 mL/kg (100 mg in 4.5 mL), and mice received 200 microliters (corresponding to 200 mg/kg) though intra peritoneal i.p. injection, once per day and five days per week.
(§4) Cells were seeded in 96-well plates (non-tissue culture treated) at a density of 10,000 cells for all cell lines. Each compound was dissolved in dimethyl sulphoxide (DMSO). For treatment of cells, compounds were serially diluted in the appropriate tissue culture medium, at a range of 20 mcM-78 nM following a 1:2 dilution factor and added to cells (in three replicates). Cells were incubated for 72 hours at 37° C., 5% CO2. DMSO alone was added to negative control (untreated) cells. Wells containing medium only were included on each plate and served as blanks for absorbance readings. MTT (Sigma-Aldrich Chemie GmbH, Buchs, Switzerland) was prepared as a 5 mg/ml stock in PBS and filter-sterilized. MTT solution (22 μL) was added to each well and tissue culture plates were incubated at 37° C. for 4 hours. Cells were then lysed with 25% SDS lysis buffer and absorbance was read at 570 nm using an AD340 plate reader (Beckman Coulter International SA, Switzerland). Absorbance values were expressed in percentage of proliferating cells in comparison with control cells (control corresponds to 100%).
(§5) Binomial exact 95% confidence intervals (95% C.I.s) were calculated for median percentages. Differences in IC50 values among lymphoma subtypes were calculated using the t-Student test. Statistical significance was defined by P values of 0.05 or less.

GCB-DLBCL cell lines = experiment: Proliferation MTT assay, median per subtype; type: cell-based; conditions: GCB-DLBCL cell lines (n=12), 72 h
Experimental: as §2, §3, §4, §5

ABC-DLBCL cell lines = experiment: Proliferation MTT assay, median per subtype; type: cell-based; conditions: ABC-DLBCL cell lines (n=3), 72 h
Experimental: as §2, §3, §4, §5

[2] = system: T cell lymphomas (CTCL, PTCL, ALCL) cell lines; experiment: Proliferation MTT assay, median per subtype; type: cell-based; conditions: 72 h
Experimental: as §2, §3, §4, §5

MCL cell lines = experiment: Proliferation MTT assay, median per subtype; type: cell-based; conditions: MCL cell lines (n=9), 72 h
Experimental: as §2, §3, §4, §5

[3] = system: human Mantle cell lymphoma REC1 cells; experiment: Xenograft experiment, REC1 model; type: in vivo; conditions: 200 mg/Kg i.p. once per day, 5 days per week
Experimental: as §3
NOD-Scid (NOD.CB17-Prkdcscid/NCrHsd) mice were purchased from Harlan Laboratory (five-six weeks of age, approximately 20 g body weight). Mice maintenance and animal experiments were performed under institutional guidelines established for the Animal Facility and with study protocols approved by the local Cantonal Veterinary Authority. Mice were subcutaneously engrafted with 15×10^6 of human Mantle cell lymphoma REC1 cells and divided into two experimental groups. Starting with tumors of 180 mm^3 volume, mice underwent treatment with single agent while controls received vehicle only. EG-011 was administered 5 days per week at the dose of 200 mg/kg (200 microliters) though i.p. injection.

OCI-LY-19 = experiment: Propidium iodide cell cycle staining; type: cell-based; conditions: OCI-LY-19, 500 and 2000 nM, 72 h
Experimental: as §1

39 lymphoma cell lines = experiment: Proliferation MTT assay, median across the 39 cell lines; type: cell-based; conditions: 95% C.I. 100-20000 nM, 72 h
Experimental: as §2, with “(1%). […]” for “(1%).”
Cells were seeded in 96-well plates (non-tissue culture treated) at a density of 10,000 cells for all cell lines. […] Wells containing medium only were included on each plate and served as blanks for absorbance readings. […] Cells were then lysed with 25% SDS lysis buffer and absorbance was read at 570 nm using an AD340 plate reader (Beckman Coulter International SA, Switzerland). Absorbance values were expressed in percentage of proliferating cells in comparison with control cells (control corresponds to 100%).
Binomial exact 95% confidence intervals (95% C.I.s) were calculated for median percentages. Differences in IC50 values among lymphoma subtypes were calculated using the t-Student test. […]

Z138 = experiment: Proliferation MTT assay, 72 h; type: cell-based; conditions: Homo sapiens, Z-138, Z138 (MCL), 72 h exposure
Experimental: as §2, §3, §4

JEKO1 = experiment: Proliferation MTT assay, 72 h; type: cell-based; conditions: Homo sapiens, JeKo-1, JEKO1 (MCL), 72 h exposure
Experimental: as §2, §3, §4

SU-DHL-10 = experiment: Proliferation MTT assay, 72 h; type: cell-based; conditions: Homo sapiens, SU-DHL10, SU-DHL-10 (GCB-DLBCL), 72 h exposure
Experimental: as §2, §3, §4

PCL-12 = experiment: Proliferation MTT assay, 72 h; type: cell-based; conditions: PCL-12 (CLL), 72 h exposure
Experimental: as §2, §3, §4

KM-H2 = experiment: Proliferation MTT assay, 72 h; type: cell-based; conditions: Homo sapiens, KM-H2 (HL), 72 h exposure
Experimental: as §2, §3, §4

MAC-1 = experiment: Proliferation MTT assay, 72 h; type: cell-based; conditions: MAC-1 (T Cell - ALCL), 72 h exposure
Experimental: as §2, §3, §4

MINO = experiment: Proliferation MTT assay, 72 h; type: cell-based; conditions: Homo sapiens, MINO (MCL), 72 h exposure
Experimental: as §2, §3, §4

OCI-LY-8 = experiment: Proliferation MTT assay, 72 h; type: cell-based; conditions: OCI-Ly8, OCI-LY-8 (GCB-DLBCL), 72 h exposure
Experimental: as §2, §3, §4

SU-DHL-6 = experiment: Proliferation MTT assay, 72 h; type: cell-based; conditions: Homo sapiens, SU-DHL-6 (GCB-DLBCL), 72 h exposure
Experimental: as §2, §3, §4

UPN1 = experiment: Proliferation MTT assay, 72 h; type: cell-based; conditions: UPN1 (MCL), 72 h exposure
Experimental: as §2, §3, §4

REC1 [4] = experiment: Proliferation MTT assay, 72 h; type: cell-based; conditions: Homo sapiens, REC1 (MCL), 72 h exposure
Experimental: as §2, §3, §4

H9 = experiment: Proliferation MTT assay, 72 h; type: cell-based; conditions: Homo sapiens, H9 (T Cell - CTCL), 72 h exposure
Experimental: as §2, §3, §4

OCI-LY-3 = experiment: Proliferation MTT assay, 72 h; type: cell-based; conditions: Homo sapiens, OCI-Ly3, OCI-LY-3 (ABC-DLBCL), 72 h exposure
Experimental: as §2, §3, §4

For `C=CC(=O)N1CCCC(n2c(=O)c3ncccc3n(Cc3ccc(Oc4ccccc4)cc3)c2=O)C1` (stereo not shown) [EG-011, 1-[(4-phenoxyphenyl)methyl]-3-(1-prop-2-enoyl-3-piperidyl)pyrido[3,2-d]pyrimidine-2,4-dione], the pIC50 (PLL cell lines) was 5.12, the “cells in the sub-GO phase (dead cells)” value (REC1 [1]) was “dose dependent increase of the cells in the sub-GO phase” and the pIC50 (HL cell lines) was 4.87. It also gave a pIC50 (GCB-DLBCL cell lines) of 6.26, a pIC50 (ABC-DLBCL cell lines) of 5.00 and a pIC50 [2] of 5.60. For the same molecule, the pIC50 (MCL cell lines) was 6.00, the “body weight of treated animals (in vivo toxicity)” value [3] was “no reduction in the body weight” and the “tumor growth (volume) versus control” value ([3]; Day 6, Day 7, Day 9, P<0.05) was “delayed tumor growth”. For the same molecule, the “tumor weight versus control” value ([3]; P<0.001 (FIG. 8)) was “delayed”, the “cells in the sub-GO phase (dead cells)” value (OCI-LY-19) was “dose dependent increase of the cells in the sub-GO phase” and the pIC50 (39 lymphoma cell lines) was 5.60. For the same molecule, the pIC50 (Z138) was 4.70, the pIC50 (JEKO1) was 5.40 and the pIC50 (SU-DHL-10) was 6.52. It also gave a pIC50 (PCL-12) of 5.15, a pIC50 (KM-H2) of 5.60 and a pIC50 (MAC-1) of 6.82. For the same molecule, the pIC50 (MINO) was 7.00, the pIC50 (OCI-LY-8) was 6.52 and the pIC50 (SU-DHL-6) was 6.30. It also gave a pIC50 (UPN1) of 6.92, a pIC50 (REC1 [4]) of 7.00 and a pIC50 (H9) of 6.00. The pIC50 (OCI-LY-3) was 5.00.
